Measurements published in patent US20110200535A1, “DAA-PYRIDINE AS PERIPHERAL BENZODIAZEPINE RECEPTOR LIGAND FOR DIAGNOSTIC IMAGING AND PHARMACEUTICAL TREATMENT” (BAYER SCHERING PHARMA AKTIENGESELLSCHAFT, priority 2008, published 2011).

Experiments:
[1] = cited from earlier work
[2] = molecular target: PBR (Homo sapiens, UniProt P30536); assay: PBR binding, [^3H]-PK11195
[3] = molecular target: CBR (central diazepine receptor); assay: CBR binding, [^3H]-Flumazenil
[4] = molecular target: T1, peripheral benzodiazepine receptor (PBR) (Rattus norvegicus, UniProt P16257); assay: Ex vivo autoradiography of brain sections, rat kainic acid induced epilepsy model; format: in vivo; conditions: rat kainic acid model, 30 min ex vivo autoradiography
T1 construct: from tissue; host or cells: rat brain (hippocampus, cerebellum) after i.v. tracer injection
Method: Using a rat kainic acid induced epilepsy model and respective sham controls the accumulation of [^18F]-2d and [^18F]-5d was visualized ex vivo. In brief, epilepsy was induced in rats by injecting kainic acid i.p. At day eight after the start of the kainic acid treatment [^18F]-2d and [^18F]-5d were injected into the tail vein of the rats and their sham treated controls (PBS instead of kainic acid) at a dose of 25.8-35.8 MBq (approximately 1.0 μg) per rat. Thirty minutes after intravenous injection the rats were sacrificed, the brains were taken out, snap frozen and sliced transversally in a cryostat. The slices were exposed to PhosphoImager plates over night. The resulting autoradiographic signals were analyzed qualitatively and quantitatively (FIG. 2.1 A and C, 2.2 A and C). […] To determine the specificity of the [^18F]-2d and [^18F]-5d binding, kainic acid treated rats were co-injected with [^19F]-2e and [^19F]-5e, respectively.
The autoradiographic signals were quantified. The signal intensity in a hippocampal region of interest (ROI) was measured and compared to a ROI in the cerebellum, that was used as reference region.

Sequence of PBR (P30536 whole entry, species assumed): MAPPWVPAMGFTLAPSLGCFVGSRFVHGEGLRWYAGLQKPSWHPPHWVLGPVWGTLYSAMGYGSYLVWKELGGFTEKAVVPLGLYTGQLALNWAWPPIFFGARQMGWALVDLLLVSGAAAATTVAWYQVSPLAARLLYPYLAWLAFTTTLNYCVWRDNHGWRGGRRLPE

CC(=O)N(Cc1ccccc1OCC[18F])c1cnccc1Oc1ccccc1 [[^18F]-FEPPA]
Brain uptake, standard uptake value (SUV), washout ([1]; after 60 min): 0.35 | Brain uptake, standard uptake value (SUV) ([1]; at 5 min): 0.6

COc1ccc(OCCF)c(CN(C(C)=O)c2cccnc2Oc2cccc(C)c2C)c1 [[^19F]-5e, N-[2-(2,3-dimethylphenoxy)pyridin-3-yl]-N-[2-(2-fluoroethoxy)-5-methoxybenzyl]acetamide]
Ki [2]: 2.57 ± 0.06 nM | Ki [3]: > 20000 nM | Hipp/Cereb ratio (signal-to-background ratio, hippocampus/cerebellum) [4]: 5.6±1.8
